Experimental data published in ChEMBL document CHEMBL1201862, “PubChem BioAssay data set” (2004).
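Results reflect a 48-hour exposure of cells in 96-well plates to compound at five concentrations. At the GI50, growth is halved.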 Active and inactive are the calls of the source. Cut-off read from the data, not from the text of the source: active = GI50 up to about 1.1 µM and inactive = higher.

Experiments:
Assay in all cases: NCI tumour cell line growth inhibition, 48 h
HCC 2998 = tested on: HCC 2998
MDA-MB-435 = tested on: MDA-MB-435
SF-268 = tested on: SF-268
NCI/ADR-RES = tested on: NCI/ADR-RES
Malme-3M = tested on: Malme-3M
SK-MEL-2 = tested on: SK-MEL-2
SF-295 = tested on: SF-295
OVCAR-8 = tested on: OVCAR-8
KM12 = tested on: KM12
MOLT-4 = tested on: MOLT-4
HOP-92 = tested on: HOP-92
LOX IMVI = tested on: LOX IMVI
SK-MEL-5 = tested on: SK-MEL-5
COLO 205 = tested on: COLO 205
HCT-116 = tested on: HCT-116
RXF 393 = tested on: RXF 393
ACHN = tested on: ACHN
SK-OV-3 = tested on: SK-OV-3
EKVX = tested on: EKVX
KM-20L2 = tested on: KM-20L2

SMILES	GI50 (HCC 2998)	GI50 (MDA-MB-435)	GI50 (SF-268)	GI50 (NCI/ADR-RES)	GI50 (Malme-3M)	GI50 (SK-MEL-2)	GI50 (SF-295)	GI50 (OVCAR-8)	GI50 (KM12)	GI50 (MOLT-4)	GI50 (HOP-92)	GI50 (LOX IMVI)	GI50 (SK-MEL-5)	GI50 (COLO 205)	GI50 (HCT-116)	GI50 (RXF 393)	GI50 (ACHN)	GI50 (SK-OV-3)	GI50 (EKVX)	GI50 (KM-20L2)
N=C(N)NCCNC(=N)N	> 100 µM (inactive)	> 100 µM (inactive)	> 100 µM (inactive)	> 100 µM (inactive)	37.5 µM (inactive)	> 100 µM (inactive)	> 100 µM (inactive)	> 100 µM (inactive)	> 100 µM (inactive)	> 100 µM (inactive)	> 100 µM (inactive)	> 100 µM (inactive)	> 100 µM (inactive)	> 100 µM (inactive)	> 100 µM (inactive)	> 100 µM (inactive)	> 100 µM (inactive)	> 100 µM (inactive)	> 100 µM (inactive)	–
CN(C)CC/C(=N\Nc1c(Cl)cccc1Cl)c1ccccc1	–	–	–	–	21 µM (inactive)	18.2 µM (inactive)	16 µM (inactive)	16.9 µM (inactive)	17 µM (inactive)	23.4 µM (inactive)	–	17.3 µM (inactive)	15.1 µM (inactive)	15.6 µM (inactive)	15.3 µM (inactive)	11.8 µM (inactive)	16 µM (inactive)	22.5 µM (inactive)	30.3 µM (inactive)	17.1 µM (inactive)
C/C=C/[C@@H]1O[C@H](CC#C[Si](C)(C)C)[C@@]2(C=O)C(C)=CC[C@H](C(C)C)[C@@H]12	18.2 µM (inactive)	20 µM (inactive)	23.8 µM (inactive)	23.3 µM (inactive)	19 µM (inactive)	16.5 µM (inactive)	21.9 µM (inactive)	23.4 µM (inactive)	17.7 µM (inactive)	1.93 µM (inactive)	17.4 µM (inactive)	4.5 µM (inactive)	17.6 µM (inactive)	21.5 µM (inactive)	18.2 µM (inactive)	18 µM (inactive)	19.2 µM (inactive)	80.4 µM (inactive)	18.8 µM (inactive)	–
N#C/C=C(/NC(=O)Nc1ccccc1)N1CCCC1	> 30.3 µM (inactive)	> 68.9 µM (inactive)	> 32.3 µM (inactive)	> 39.9 µM (inactive)	> 45 µM (inactive)	> 32.9 µM (inactive)	> 31.5 µM (inactive)	> 32.5 µM (inactive)	> 54.8 µM (inactive)	> 100 µM (inactive)	> 48 µM (inactive)	> 66.7 µM (inactive)	56.4 µM (inactive)	> 55 µM (inactive)	> 34.8 µM (inactive)	> 100 µM (inactive)	> 38.7 µM (inactive)	> 100 µM (inactive)	> 59.7 µM (inactive)	–
C=C1C(=O)O[C@@H]2C(=O)[C@@H](C)[C@@H]3C=CC(=O)[C@@]3(C)[C@@H](OC(=O)/C(C)=C\C)[C@H]12 [MULTISTATIN]	1.71 µM (inactive)	1.29 µM (inactive)	1.69 µM (inactive)	2.37 µM (inactive)	0.298 µM (active)	2.86 µM (inactive)	13 µM (inactive)	1.73 µM (inactive)	2.3 µM (inactive)	0.41 µM (active)	0.393 µM (active)	0.555 µM (active)	1.68 µM (inactive)	0.237 µM (active)	0.238 µM (active)	0.378 µM (active)	0.212 µM (active)	13.1 µM (inactive)	1.1 µM (active)	–
CCOC(=O)C(=O)Nc1nc2c(s1)C(=O)c1ccccc1C2=O	17.7 µM (inactive)	–	14.1 µM (inactive)	–	12.3 µM (inactive)	17.2 µM (inactive)	–	10.6 µM (inactive)	16 µM (inactive)	2.32 µM (inactive)	12.2 µM (inactive)	–	14.3 µM (inactive)	22.5 µM (inactive)	13.3 µM (inactive)	–	14.9 µM (inactive)	> 10 µM (inactive)	16.1 µM (inactive)	21.2 µM (inactive)
CCN(CC)Cc1cc(/N=N\c2c(O)ccc3c(/N=N\c4ccc(O)c(CN(CC)CC)c4)c(O)ccc23)ccc1O	1.71 µM (inactive)	3.65 µM (inactive)	4.56 µM (inactive)	4.57 µM (inactive)	4.5 µM (inactive)	12.6 µM (inactive)	5.01 µM (inactive)	2.12 µM (inactive)	1.18 µM (inactive)	1.13 µM (inactive)	4.58 µM (inactive)	1.59 µM (inactive)	2.47 µM (inactive)	1.61 µM (inactive)	1.94 µM (inactive)	2.94 µM (inactive)	2.49 µM (inactive)	2.77 µM (inactive)	4.56 µM (inactive)	–
O=C(CN1CCN(C(=O)OCc2ccccc2)CCN(CC(=O)N2CCCCC2)CCN(C(=O)OCc2ccccc2)CC1)N1CCCCC1	11.2 µM (inactive)	16.1 µM (inactive)	15.8 µM (inactive)	10.9 µM (inactive)	8.38 µM (inactive)	19.5 µM (inactive)	18.7 µM (inactive)	8.61 µM (inactive)	17.7 µM (inactive)	7.41 µM (inactive)	12.9 µM (inactive)	14.5 µM (inactive)	6.87 µM (inactive)	11.9 µM (inactive)	4.88 µM (inactive)	11.9 µM (inactive)	18.1 µM (inactive)	27.7 µM (inactive)	24.9 µM (inactive)	–
